According to PubChem BioAssay (NCI):
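Five concentrations, 48 hours, 96-well plates. GI50 marks 50% less growth. The concentration for full growth arrest is given as TGI.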

Key:
Test in all cases: NCI anticancer screen, dose series, 48 h
RXF 393 renal = system: RXF 393 renal
OVCAR-4 ovarian = system: OVCAR-4 ovarian
CAKI-1 renal = system: CAKI-1 renal
TK-10 renal = system: TK-10 renal
UACC-257 melanoma = system: UACC-257 melanoma
M14 melanoma = system: M14 melanoma
HCT-15 colon = system: HCT-15 colon
HOP-92 NSCLC = system: HOP-92 NSCLC
OVCAR-8 ovarian = system: OVCAR-8 ovarian
SW-620 colon = system: SW-620 colon
KM12 colon = system: KM12 colon
SF-539 CNS = system: SF-539 CNS
EKVX NSCLC = system: EKVX NSCLC
OVCAR-5 ovarian = system: OVCAR-5 ovarian
U251 CNS = system: U251 CNS
SNB-19 CNS = system: SNB-19 CNS
T-47D breast = system: T-47D breast
MDA-MB-435 = system: MDA-MB-435
CCRF-CEM leukemia = system: CCRF-CEM leukemia
MCF7 breast = system: MCF7 breast
UACC-62 melanoma = system: UACC-62 melanoma
NCI-H460 lung = system: NCI-H460 lung
HCC-2998 colon = system: HCC-2998 colon
A498 renal = system: A498 renal
LOX IMVI melanoma = system: LOX IMVI melanoma
OVCAR-3 ovarian = system: OVCAR-3 ovarian
MDA-MB-231 breast = system: MDA-MB-231 breast
HCT-116 colon = system: HCT-116 colon

Nc1nc(/C=C\c2ccc([N+](=O)[O-])cc2)nc(N2CCN(c3ccccc3)CC2)n1
GI50 (RXF 393 renal): 29.3 µM | TGI (RXF 393 renal): 93 µM | GI50 (OVCAR-4 ovarian): 53.3 µM | TGI (OVCAR-4 ovarian): > 100 µM | GI50 (CAKI-1 renal): 22.5 µM | TGI (CAKI-1 renal): 45.8 µM | GI50 (TK-10 renal): 20.5 µM | TGI (TK-10 renal): 65 µM | GI50 (UACC-257 melanoma): 25.1 µM | TGI (UACC-257 melanoma): 61.5 µM | GI50 (M14 melanoma): 25.6 µM | TGI (M14 melanoma): 62.9 µM | GI50 (HCT-15 colon): 25.3 µM | TGI (HCT-15 colon): > 100 µM | GI50 (HOP-92 NSCLC): 44.2 µM | TGI (HOP-92 NSCLC): > 100 µM | GI50 (OVCAR-8 ovarian): 29.7 µM | TGI (OVCAR-8 ovarian): > 100 µM | GI50 (SW-620 colon): 40.4 µM | TGI (SW-620 colon): > 100 µM | GI50 (KM12 colon): 20.7 µM | TGI (KM12 colon): 53.8 µM | GI50 (SF-539 CNS): > 100 µM | TGI (SF-539 CNS): > 100 µM | GI50 (EKVX NSCLC): 43.4 µM | TGI (EKVX NSCLC): > 100 µM | GI50 (OVCAR-5 ovarian): 89 µM | TGI (OVCAR-5 ovarian): > 100 µM | GI50 (U251 CNS): 38.2 µM | TGI (U251 CNS): > 100 µM | GI50 (SNB-19 CNS): > 100 µM | TGI (SNB-19 CNS): > 100 µM | GI50 (T-47D breast): 23.1 µM | TGI (T-47D breast): 61 µM | GI50 (MDA-MB-435): 20.5 µM | TGI (MDA-MB-435): 41.7 µM | GI50 (CCRF-CEM leukemia): 23.2 µM | TGI (CCRF-CEM leukemia): 74.6 µM | GI50 (MCF7 breast): 34.2 µM | TGI (MCF7 breast): > 100 µM | GI50 (UACC-62 melanoma): 18.9 µM | TGI (UACC-62 melanoma): 43.6 µM | GI50 (NCI-H460 lung): 35.5 µM | TGI (NCI-H460 lung): > 100 µM | GI50 (HCC-2998 colon): 41 µM | TGI (HCC-2998 colon): 96.2 µM | GI50 (A498 renal): 37.6 µM | TGI (A498 renal): > 100 µM | GI50 (LOX IMVI melanoma): 30.2 µM | TGI (LOX IMVI melanoma): > 100 µM | GI50 (OVCAR-3 ovarian): 26.9 µM | TGI (OVCAR-3 ovarian): 69.6 µM | GI50 (MDA-MB-231 breast): 20.8 µM | TGI (MDA-MB-231 breast): 58.1 µM | GI50 (HCT-116 colon): 24.8 µM | TGI (HCT-116 colon): > 100 µM
